Laboratory results as given in BindingDB's records for doi:10.1016/j.bmcl.2006.01.061 (Institute of Genomics and Integrative Biology, 2006).
Square brackets hold non-standard residues; d marks the D form. Peptide text beside a SMILES is read from it. Trp(5-OH) = N[C@@H](Cc1c[nH]c2ccc(O)cc12)C(=O)O; NMeW = CN[C@@H](Cc1c[nH]c2ccccc12)C(=O)O; Orn = NCCC[C@H](N)C(=O)O

Target: Angiotensin-converting enzyme (Bos taurus)
Test: Inhibition of ACE in bovine kidney

Row | SMILES | IC50 [µM]
1 | NCCC[C@H](NC(=O)CCc1nc2ccccc2[nH]1)C(=O)N1CCC[C@H]1C(=O)O [BPA-Lys-Pro] | 10
2 | NCCC[C@H](NC(=O)[C@@H](N)Cc1c[nH]c2ccc(O)cc12)C(=O)N1CCC[C@H]1C(=O)O [HTP-Orn-Pro] (H-[Trp(5-OH)]-[Orn]-Pro-OH) | 4
3 | CN[C@@H](Cc1c[nH]c2ccccc12)C(=O)N[C@@H](CCCN)C(=O)N1CCC[C@H]1C(=O)O [MTP-Orn-Pro] (H-[NMeW]-[Orn]-Pro-OH) | 10
